# Test results from publication PMC8748916, “Microbial enzymes induce colitis by reactivating triclosan in the mouse gastrointestinal tract” (Nature Communications, 2022).
# Values joined by “and” are separate entries in the source; they are usually repeats but may differ in a detail not shown here. Equal entries are not always repeated.
# How the values were obtained:
# [1] = LC-MS/MS of TCS and its metabolites in human stool and urine after use of TCS-containing personal care products; assay type: in vivo; settings: for TCS metabolites in human stool / TCS metabolites in human urine: Treatment TCS, individual subjects;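 for Profile in stool (%): molar share of summed TCS plus TCS-G plus TCS-sulfate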;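 for Profile in urine (%): molar share of summed TCS plus TCS-G plus TCS-sulfate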;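 for average molar concentration ratio: molar share of summed TCS plus TCS-G plus TCS-sulfate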
# Source text: To broaden our understanding of TCS metabolic profiles in the gut, we next analyzed TCS metabolism in human subjects. We utilized urine and stool samples from a previous study in which the recruited human subjects were first subjected to a washout period (no usage of TCS-containing products), then were randomly assigned to two groups that used personal care products like toothpaste with or without TCS for up to four months (see the scheme of the experiment in Fig. 1c)[15]. Previous data had established that humans are primarily exposed to TCS via toothpaste that provides a direct oral route to the gastrointestinal tract[16],[17].
# [2] = Antibiotic suppression of gut microbiota: TCS colonic metabolism in mice (80 ppm TCS diet, 4 weeks); assay type: in vivo; settings: 80 ppm TCS via diet 4 weeks; antibiotic cocktail vs none
# Source text: This antibiotic composition was used in previous studies by others[20],[21] and us[22],[23]. […] After another 4 weeks, the mice were sacrificed, and their tissues were collected for LC-MS/MS analysis.
# [3] = TCS colonic metabolism in conventional vs germ-free Swiss Webster mice; assay type: in vivo; settings: 6 h after oral gavage of 8 mg/kg TCS, individual mice
# [4] = test system: DSS-induced colitis; assay: DSS-induced colitis in mice: TCS with or without GUSi (colon length, histology, FACS, qRT-PCR); assay type: in vivo
# Source text: (§1) After another 3 weeks, the mice were stimulated with 2% DSS (molecular weight = 36–50 KDa, MP Biomedicals, Solon, OH) in drinking water for 6 days to induce colitis. At end of the experiment, the mice were sacrificed for analysis.
# (§2) Total RNA of colon tissues and MC38 cells were isolated using Trizol reagent (Ambion) according to the manufacturer’s instruction. RNA was reverse transcribed into cDNA using the High Capacity cDNA Reverse Transcription kit (Applied Biosystem) according to the manufacturer’s instructions. In all, 20 μL PCR reactions were prepared using the Maxima SYBR Green Master Mix (Thermo Fisher Scientific), and qPCR was carried out using a DNA Engine Opticon System (Bio-Rad Laboratories). Mouse-specific primer sequences (Thermo Fisher Scientific) used to detect inflammatory biomarkers are listed in Supplementary Table S6. Gapdh expression was used as an internal control.
# Distal colon tissues were dissected, washed with cold PBS, and digested with Hank’s balanced salt solution (HBSS, Lonza) supplemented with 1 mM dithiothreitol (DTT) and 5 mM EDTA at 4 °C (colon […] cells). The released cells were stained with FITC-conjugated anti-mouse CD45 (BioLegend, Clone: 30-F11), PerCP/Cy5.5-conjugated anti-mouse F4/80 (BioLegend, Clone: BM8), and PE/Cy7-conjugated anti-mouse Ly-6G/Ly-6C (GR-1) (BioLegend, Clone: RB6-8C5) with a 1:100 diluted solution. Cells were stained with Zombie Violet^TM dye (Zombie Violet^TM Fixable Viability Kit; BioLegend) according to the manufacturer’s instructions to exclude dead cells. Gating and cell identification strategies are as follows: briefly, cell doublets and clumps were eliminated using FSC-A gating and debris was eliminated using FSC-A vs SSC-A. Dead cells were gated out using Zombie Violet™ dye. Flow cytometry data were acquired on a BD LSR Fortessa^TMcell analyzer (Becton Dickinson, Franklin Lakes, NJ) and analyzed using FlowJo software (FlowJo, LLC). Gating strategies used for the identification of major immune cell populations are shown in Supplementary Fig. S17.
# The dissected colon tissues were fixed in 10% neutral buffered formalin (Thermo Fisher Scientific) for 48 h. After dehydration, the tissues were embedded in paraffin and sliced ([…]) by Rotary Microtome (Thermo Fisher Scientific). The slices were dewaxed in serial xylene and rehydrated through ethanol solutions, stained with hematoxylin and eosin (Sigma-Aldrich), and images were obtained under 200× magnification (BZ-X700 microscope, Keyence, Itasca, IL). The histologic scores were evaluated by a blinded observer according to the following measures: crypt architecture, degree of inflammatory cell infiltration, muscle thickening, goblet cell depletion, and crypt abscess. The histologic damage score is the sum of each individual score.
# [5] = Target engagement: GUSi in colon tissue and TCS to TCS-G ratio in colon digesta by LC-MS/MS; assay type: in vivo, mice; settings: TCS-treated mice, no GUSi, individual mice
# Protocol: as §1
# Fig. S15. Orally dosed GUSi reaches the mouse colon and suppresses conversion of TCS -G to TCS. a.
# mice were stimulated with DSS to induce colitis. The final GUSi was dosed on day 25 and mice were sacrificed
# for analysis on day 27. b. GUSi is detected in the mouse colon 2 days after the final dose of the inhibitor. c.
# GUSi treatment reduces the ratio of TCS to TCS-G in colon digesta.
# per group. NA: no TCS or TCS-G detected.
# [6] = test system: MC38 cells; assay: Inflammatory response of MC38 intestinal epithelial cells (Il-6 RT-qPCR, IL-6 ELISA); assay type: cell-based, mouse
# Protocol: MC38 intestinal epithelial cells were cultured in Dulbecco’s Modified Eagle Medium (DMEM) supplemented with 10% fetal bovine serum (FBS) and incubated at 37 °C under an atmosphere of 5% CO2. MC38 cells were seeded at 20% confluency and left to settle overnight. Cells were then treated with either 1 μM TCS, TCS-G, or vehicle (DMSO). After 48 h, cells were harvested for RT-qPCR analysis. Cell medium was collected for ELISA analysis using the CBA Mouse Inflammation Kit (BD Sciences) according to the manufacturer’s instructions, and data were acquired using a BD LSR Fortessa flow cytometer (BD Biosciences) and analyzed using FlowJo software (Treestar).
# as §2
# a. Cultured murine intestinal epithelial MC38 cells were treated with 1 μM of TCS or TCS-G for 48 h prior to
# studying inflammatory responses. b. TCS increases the expression of Il-6, which encodes the pro-inflammatory
# n = 3 per group from three independent experiments, * P < 0.05, ** P < 0.01, *** P < 0.001.
# [7] = Antibiotic suppression of gut microbiota: kinetics of TCS colonic metabolism after one-time oral gavage; settings: within the 24-h period; 8 mg/kg TCS oral gavage
# [8] = treatment time 0 months (after washout)
# [9] = human stool, TCS-exposed subjects
# [10] = human urine, TCS-exposed subjects
# [11] = 80 ppm TCS via diet vs vehicle, DSS-induced colitis, without GUSi
# [12] = DSS colitis mice, FACS, individual animals, Fig.5d
# [13] = DSS colitis mice, gene expression, individual animals, Fig.5e
compound,measurement,setting,value
"Oc1cc(Cl)ccc1Oc1ccc(Cl)cc1Cl [TCS, Triclosan]",Profile in urine (%),"[1]; TCS-exposed human subjects, n=7 urine samples",1.57%
same,Profile in stool (%),"[1]; TCS-exposed human subjects, n=23 stool samples",99.16%
same,TCS metabolites in human stool,[1]; [8],< LOD and 12.62 pmol/ g stool and 10.84 pmol/ g stool and 388.08 pmol/ g stool and 57.90 pmol/ g stool
same,TCS metabolites in human urine,[1]; [8],< LOD
same,TCS metabolites in human stool,[1]; treatment time 1 month,1094.80 pmol/ g stool and 225.14 pmol/ g stool and 1049.03 pmol/ g stool and 626.33 pmol/ g stool and 215.36 pmol/ g stool and 317.47 pmol/ g stool
same,TCS metabolites in human urine,[1]; treatment time 1 month,< LOD
same,TCS metabolites in human stool,[1]; treatment time 2 months,372.82 pmol/ g stool and 713.18 pmol/ g stool and 245.09 pmol/ g stool and 96.24 pmol/ g stool and 905.85 pmol/ g stool
same,TCS metabolites in human urine,[1]; treatment time 2 months,8.55 nM urine
same,TCS metabolites in human stool,[1]; treatment time 3 months,515.81 pmol/ g stool and 334.49 pmol/ g stool and 515.22 pmol/ g stool and 400.99 pmol/ g stool and 445.98 pmol/ g stool and 105.82 pmol/ g stool
same,TCS metabolites in human urine,[1]; treatment time 3 months,< LOD
same,TCS metabolites in human stool,[1]; treatment time 4 months,633.76 pmol/ g stool and 67.29 pmol/ g stool and 968.25 pmol/ g stool and 633.96 pmol/ g stool and 135.75 pmol/ g stool and 295.56 pmol/ g stool
same,TCS metabolites in human urine,[1]; treatment time 4 months,3.06 nM urine and 6.42 nM urine and 11.23 nM urine and 5.52 nM urine
same,average molar concentration ratio,[1]; [9],99.2%
same,concentration of free TCS measured in stool (highest),[1]; [9],≤ 1 pmol/mg tissue
same,"concentration of free TCS measured in stool (highest), equated",[1]; [9],~ 1 µM
same,TCS concentrations in urine,[1]; [10],low-nM range
same,average molar concentration ratio,[1]; [10],1.6%
same,change of concentration in the fecal content by antibiotic treatment,[2],significantly reduced
same,"tcs, tcs-G in colon digesta",[3]; CONV Swiss Webster mice,35.08 pmol/mg and 44.23 pmol/mg and 53.2 pmol/mg and 70.03 pmol/mg and 36.57 pmol/mg and 25.88 pmol/mg and 61.48 pmol/mg and 14.87 pmol/mg
same,"tcs, tcs-G in colon digesta",[3]; GF Swiss Webster mice,1.71 pmol/mg and 1.97 pmol/mg and 2.79 pmol/mg and 1.05 pmol/mg and 1.69 pmol/mg
same,colon length,[4]; [11],reduced
same,"colonic infiltration of immune cells (CD45+ leukocytes, CD45+ F4/80+ macrophages, CD45+ Gr1+ neutrophils)",[4]; [11],enhanced
same,crypt damage,[4]; [11],more severe
same,"expression of pro-inflammatory genes (Tnf-a, Mcp-1, Il-6, Il-17, Il-23) in the colon",[4]; [11],increased
same,cd45+(%),[4]; [12],13.9% and 7.52% and 6.6% and 9.17% and 14.3% and 13.5% and 15.4%
same,f4/80+ (%),[4]; [12],6.98% and 7.38% and 21.2% and 6.4% and 16.3% and 14.9% and 17.1%
same,gr-1+ (%),[4]; [12],6.98% and 5.74% and 9.62% and 14.5% and 6.12% and 11.4% and 10%
same,Il-6,[4]; [13],2.766 and 2.25 and 1.456 and 1.055 and 1.808 and 1.047
same,Il-17,[4]; [13],3.654 and 3.3461 and 1.6638 and 1.675 and 2.194 and 1.456 and 1.44 and 2.099
same,Il-23,[4]; [13],1.246 and 3.908 and 1.924 and 1.869 and 2.972 and 1.28 and 1.3835 and 2.162
same,Mcp1,[4]; [13],1.522 and 3.593 and 1.038 and 1.619 and 1.9672 and 1.4511
same,Tnf-α,[4]; [13],18.081 and 1.569 and 15.9712 and 7.287 and 5.139 and 4.495 and 3.411
same,HE,"[4]; DSS colitis mice, histology score, individual animals, Fig.5c",5 and 10 and 8 and 7 and 9
same,colon length (cm),"[4]; DSS colitis mice, individual animals, Fig.5b",5.8 cm and 7.1 cm and 7 cm and 6.3 cm and 6.4 cm and 5.3 cm
same,TCS/TCSG in colon digesta,[5],69.2572 and 105.161 and 114.057 and 134.536 and 118.012 and 116.121 and 236.945 and 380.254 and 130.474 and 139.078
same,Il-6 gene expression,"[6]; 1 µM, 48 h",increased
same,medium concentration of IL-6 (ELISA),"[6]; 1 µM, 48 h",increased
same,Il-6 (Fig. S16b),"[6]; MC38 cells, gene expression, replicates",2.497 and 4.058 and 2.001 and 8.229 and 6.742 and 2.645 and 3.872 and 1.125 and 4.892
same,IL-6 (Fig. S16c),"[6]; MC38 cells, protein, replicates",31 pg/mL and 44.92 pg/mL and 38.72 pg/mL and 36.69 pg/mL and 44.27 pg/mL and 53.91 pg/mL and 47.57 pg/mL and 30.74 pg/mL and 39.61 pg/mL
same,reduction of AUC in colon digesta by antibiotic treatment,[7],~ 40%
